From US9375000B2, “Pesticidal arylpyrrolidines” (Bayer Intellectual Property GmbH, priority 2011, dated 2016)

Columns and labels:
[1] = test system: Cucurbit Leaf Beetle (Aulacophora femoralis); assay: Cucurbit leaf beetle (Aulacophora femoralis) cucumber leaf dip test; format: in vivo; details: after 7 days; for pest or weed control at 20 ppm: Aulacophora, foliar, 168 h, read-out: insecticidal activity
Procedure: (§1) Unless not mentioned otherwise, the test solutions were prepared as follows:
(§2) Solvent: 3 parts by weight Dimethylformamide
(§3) Emulsifier: 1 part by weight Polyoxyethylene alkyl phenyl ether
(§4) In order to make an appropriate formulation of an active compound, 1 part by weight of the active compound is mixed with the above mentioned amount of solvent and emulsifier and the mixture is diluted with water to a prescribed concentration. Ammonium salt or ammonium salt and penetration enhancer in a dosage of 1000 ppm are added to the desired concentration if necessary.
Leaves of cucumber were immersed in the test solution at the appropriate concentration, and the leaves were dried in air. The leaves were then put in a plastic cup containing sterilized black soil and five Aulacophora femoralis at second instar larvae were released in the cup. The cups were placed in a temperature-controlled chamber at 25° C. After 7 days, the number of dead larvae was counted, and thus the insecticidal activity was calculated. An insecticidal activity of 100% means that all larvae were killed, whereas an insecticidal activity of 0% means that no larva was killed.

[2] = test system: Larvae of Spodoptera litura; assay: Larvae of Spodoptera litura, method using artificial feeds; format: in vivo; details: artificial feed, after 7 days
Procedure: as §1, §2, §3, §4
[A Method Using Artificial Feeds (Trade Name: Insecta LFM, Manufactured by Nosan Corporation)]
Powdery artificial feeds (2.3 g) were added to a plastic cup (diameter: 7.5 cm, height: 4 cm) to achieve a certain thickness. Water-diluted liquid (5 ml) of the active compound prepared above having predetermined concentration was evenly poured thereto and allowed to stand until the feeds were solidified. Five of the 3rd-instar larvae of Spodoptera litura were released in respective cups, and covered. The cups were put in a temperature controlled room at 25° C. and humidity of 50 to 60%, and the number of dead larvae after 7 days was determined to calculate the pesticidal ratio. 100% pesticidal ratio means death of all the larvae, while 0% pesticidal ratio means no dead larvae.

[3] = active compound concentration 20 ppm
[4] = active compound concentration 4 ppm
[5] = active compound concentration 100 ppm

Compound | insecticidal activity [1, 3] [%] | insecticidal activity (pesticidal ratio) [2, 3] [%] | insecticidal activity (pesticidal ratio) [2, 4] [%] | also measured
CCC(=O)NCc1ccc(N2CCC(c3cc(Cl)cc(Cl)c3)(C(F)(F)F)C2O)cc1 (centres unmarked) [A1-373] | 100 | 100 | – | –
CCC(=O)NCc1ccc(N2CC(c3cc(Cl)cc(Cl)c3)(C(F)(F)F)CC2=O)nc1C(F)(F)F (centres unmarked) [C3-2] | – | 100 | – | –
CC(=O)NCc1ccc(N2CCC(c3cc(Cl)cc(Cl)c3)(C(F)(F)F)C2O)cc1C(F)(F)F (centres unmarked) [A1-34] | 100 | 100 | – | –
O=C(NCc1cc(F)c(N2CCC(c3cc(Cl)c(Cl)c(Cl)c3)(C(F)(F)F)C2O)cc1Cl)C1CC1 (centres unmarked) [A1-481] | – | – | 100 | insecticidal activity [1, 4]: 100%
CCC(=O)NCc1ccc(N2CC(c3cc(Cl)c(Cl)c(Cl)c3)(C(F)(F)F)CC2=O)nc1C (centres unmarked) [C1-74] | – | 100 | – | –
O=C(NCc1cnc(N2CCC(c3cc(C(F)(F)F)cc(C(F)(F)F)c3)(C(F)(F)F)C2O)nc1Cl)C1CC1 (centres unmarked) [A4-252] | – | – | 100 | insecticidal activity [1, 4]: 100%
CCC(=O)NCc1ccc(N2CCC(c3cc(C(F)(F)F)cc(C(F)(F)F)c3)(C(F)(F)F)C2=O)cc1 (centres unmarked) [B1-96] | 100 | 100 | – | –
CCC(=O)NCc1ccc(N2CC(c3cc(C(F)(F)F)cc(C(F)(F)F)c3)(C(F)(F)F)CC2O)nc1C(F)(F)F (centres unmarked) [A′3-24, N-{[6-{4-[3,5-bis(trifluoromethyl)phenyl]-2-hydroxy-4-(trifluoromethyl)pyrrolidin-1-yl}-2-(trifluoromethyl)pyridin-3-yl]methyl}propanamide] | – | – | – | pest or weed control at 20 ppm [1, 3]: 100%; pest or weed control at 20 ppm ([2]; Spodoptera litura, 168 h, active compound concentration 20 ppm, read-out: insecticidal activity (pesticidal ratio)): 100%
Cc1nc(N2CCC(c3cc(C(F)(F)F)cc(C(F)(F)F)c3)(C(F)(F)F)C2O)ccc1CNC(=O)C1CC1 (centres unmarked) [A3-126] | 100 | 100 | – | –
O=C(NCc1cc(F)c(N2CCC(c3cc(Cl)c(Cl)c(Cl)c3)(C(F)(F)F)C2O)cc1F)C1CC1 (centres unmarked) [A1-457] | – | – | 100 | insecticidal activity [1, 4]: 100%
CC(=O)NCc1cc(F)c(N2CCC(c3cc(C(F)(F)F)cc(C(F)(F)F)c3)(C(F)(F)F)C2O)nc1Cl (centres unmarked) [A3-377] | – | – | 100 | insecticidal activity [1, 4]: 100%
CC(=O)NCc1ccc(N2CCC(c3cccc(C(F)(F)F)c3)(C(F)(F)F)C2O)nc1C(F)(F)F (racemic) [A3-221] | 100 | – | – | –
O=C(NCc1cnc(N2CCC(c3cc(Cl)cc(Cl)c3)(C(F)(F)F)C2O)nc1C(F)(F)F)C1CCCN1 (centres unmarked) [A4-202] | – | – | – | insecticidal activity (pesticidal ratio) [2, 5]: 100%
CCC(=O)NCc1ccc(N2CCC(c3cc(C(F)(F)F)cc(C(F)(F)F)c3)(C(F)(F)F)C2O)cc1 (centres unmarked) [A1-395] | 100 | 100 | – | –
Cc1nc(N2CCC(c3cc(C(F)(F)F)cc(C(F)(F)F)c3)(C(F)(F)F)C2O)ccc1CNC(=O)CS(C)(=O)=O (centres unmarked) [A3-132] | – | 100 | 100 | –
Cc1c(CNC(=O)C2CC2)ccc(N2CCC(c3cc(Cl)c(Cl)c(Cl)c3)(C(F)(F)F)C2O)c1F (centres unmarked) [A1-493] | – | – | 100 | insecticidal activity [1, 4]: 100%
CC(=O)NCc1ccc(N2CCC(c3cc(C(F)(F)F)cc(C(F)(F)F)c3)(C(F)(F)F)C2O)nc1C (centres unmarked) [A3-122] | – | 100 | 100 | –

Compound | insecticidal activity [1, 3] [%] | insecticidal activity (pesticidal ratio) [2, 3] [%] | insecticidal activity (pesticidal ratio) [2, 4] [%] | also measured
N#Cc1ccc(N2CCC(c3cc(Cl)c(F)c(Cl)c3F)(C(F)(F)F)C2O)cc1C(F)(F)F (centres unmarked) [a1-48, 4-[3-(3,5-dichloro-2,4-difluorophenyl)-2-hydroxy-3-(trifluoromethyl)-pyrrolidin-1-yl]-2-(trifluoromethyl)benzonitrile] | – | – | – | pest or weed control at 20 ppm [1, 3]: 100%
O=C(NCc1cc(F)c(N2CCC(c3cc(Cl)c(Cl)c(Cl)c3)(C(F)(F)F)C2O)nc1Cl)C1CC1 (centres unmarked) [A3-370] | – | – | 100 | insecticidal activity [1, 4]: 100%
CC(C)(C)OC(=O)NCc1ccc(N2CCC(c3cc(C(F)(F)F)cc(C(F)(F)F)c3)(C(F)(F)F)C2O)cc1C(F)(F)F (mixture of isomers) [A1-72] | – | – | – | insecticidal activity [1, 5]: 100%; insecticidal activity (pesticidal ratio) [2, 5]: 100%
CC(C)(C)OC(=O)N1CCCC1C(=O)NCc1cnc(N2CCC(c3cc(Cl)cc(Cl)c3)(C(F)(F)F)C2O)nc1C(F)(F)F (centres unmarked) [A4-203] | – | – | – | insecticidal activity (pesticidal ratio) [2, 5]: 80%
CC(C)(C)OC(=O)NCc1ccc(N2CCC(c3cc(C(F)(F)F)cc(C(F)(F)F)c3)(C(F)(F)F)C2O)cc1Cl (centres unmarked) [A1-69, tert-butyl (4-{3-[3,5-bis(trifluoromethyl)phenyl]-2-hydroxy-3-(trifluoro-methyl)pyrrolidin-1-yl}-2-chlorobenzyl)carbamate] | – | – | – | pest or weed control at 20 ppm [1, 3]: 100%
CC(=O)NCc1ccc(N2CCC(c3cc(C(F)(F)F)cc(C(F)(F)F)c3)(C(F)(F)F)C2O)cc1C (mixture of isomers) [A1-183] | 100 | 100 | – | –
CN(C)CC(=O)NCc1cnc(N2CCC(c3cc(Cl)cc(Cl)c3)(C(F)(F)F)C2O)nc1C(F)(F)F (centres unmarked) [A4-201] | – | – | – | insecticidal activity (pesticidal ratio) [2, 5]: 100%
CCC(=O)NCc1ccc(N2CCC(c3cc(C(F)(F)F)cc(C(F)(F)F)c3)(C(F)(F)F)C2O)nc1Br (centres unmarked) [A3-156] | 100 | 100 | – | –
C=C(C)N(Cc1ccc(N2CCC(c3cc(Cl)c(Cl)c(Cl)c3)(C(F)(F)F)C2O)nc1C(F)(F)F)C(=O)C1CC1 (centres unmarked) [A3-424] | – | – | 100 | insecticidal activity [1, 4]: 100%
CCCC(=O)NCc1ccc(N2CCC(c3cc(Cl)c(Cl)c(Cl)c3)(C(F)(F)F)C2O)cc1C(F)(F)F (centres unmarked) [a1-47] | – | 100 | – | –
O=C(NCc1ccc(N2CC(c3cc(Cl)cc(Cl)c3)(C(F)(F)F)CC2=O)nc1C(F)(F)F)C1CC1 (centres unmarked) [C3-5] | – | 100 | – | –
CC(=O)NCc1cc(F)c(N2CCC(c3cc(Cl)c(Cl)c(Cl)c3)(C(F)(F)F)C2O)cc1F (centres unmarked) [A1-453] | – | – | 80 | –
CCC(=O)NCc1ccc(N2CCC(c3cc(Br)cc(Br)c3)(C(F)(F)F)C2O)nc1C(F)(F)F (mixture of isomers) [A3-178] | 100 | 100 | – | –
CC(=O)NCc1ccc(N2CCC(c3cc(C(F)(F)F)cc(C(F)(F)F)c3)(C(F)(F)F)C2O)nc1Br (centres unmarked) [A3-155] | 100 | 100 | 100 | insecticidal activity [1, 4]: 100%
O=C(NCc1ccc(N2CCC(c3cc(Br)cc(Br)c3)(C(F)(F)F)C2O)nc1C(F)(F)F)C1CC1 (mixture of isomers) [A3-181] | 100 | 100 | – | –
CCC(=O)NCc1ccc(N2CCC(c3cc(Cl)cc(Cl)c3)(C(F)(F)F)C2O)nc1C(F)(F)F (centres unmarked) [A3-2] | 100 | 100 | – | –
CCC(=O)NCc1ccc(N2CCC(c3cc(Cl)c(F)c(Cl)c3F)(C(F)(F)F)C2O)nc1Br (centres unmarked) [A3-323] | – | – | 100 | insecticidal activity [1, 4]: 100%
